Measurements taken from patent publication EP2441755A1 (Almirall, S.A., priority 2010, dated 2012).
Where two headings read alike, the source gives them in different places.

What was measured:
[1] = target: T1, Recombinant human full-length Syk (Homo sapiens, UniProt P43405); test: Syk enzyme assay - radioactive filtration kinase assay; format: biochemical
T1 construct: Recombinant human full-length Syk was supplied by Millipore; purchased Millipore
Protocol: Syk Enzyme assay- Radioactive filtration kinase assay
Recombinant human full-length Syk was supplied by Millipore. The activity of Syk kinase was assessed using a radioactive filtration kinase assay. […] The reaction was initiated by the addition of 14.5 µl of 0.36 µCi [γ-^33P] ATP (10 mCi/ml, PerkinElmer). This was prepared in a half-area NBS plate (Corning) and allowed to stand at room temperature for 40 min. 15 µl of reaction mixture was transferred to a filter plate (Millipore) previously pre-wetted with a solution of 75 mM phosphoric acid. The reaction was terminated with the addition of 200 µl phosphoric acid. The filter plate was washed three times under vacuum on a vacuum manifold (Millipore cat# MSVMHTS00) at 8" Hg vacuum level with 200 µl phosphoric acid per wash. 30 µl Optiphase™ Supermix (PerkinElmer) was added to each test well and allowed to incubate for at least 1 h before counting. Radioactivity counting was performed in a Wallac MicroBeta®, and the tyrosine phosphorylation activity by Syk was calculated.

LAD2 cells = LAD2 cells assay (degranulation, β-hexosaminidase release); format: cell-based; conditions: Homo sapiens
Text: LAD2 is a human mast cell line depending on stem cell factor for its survival, maturation and differentiation. This mast cell line was established by the NIH from bone marrow aspirates from a patient with mast cell sarcoma. LAD2 cells resemble CD34+ - derived human mast cells as they have granules containing tryptase, histamine and β-hexosaminidase. They also express c-kit and FcεRI (Kirshenbaum, et al., Leukemia Research 27: 677-682, 2003).
Sensitization of LAD2 cells
Cells were sensitized (0.2x10^6 cells/ml) in its normal growth factor (Complete StemPro-34 SFM, Gibco 10639-011 containing StemPro-34 nutrient supplement (1/40); glutamine (2 mM) and supplemented with 100 ng/ml SCF) by adding 100 ng/ml of biotin-labeled IgE (USBiological) overnight (16-18 h, 37º, 5% CO2) in a humidified atmosphere (90%).
Compounds were prepared from a 10^-2M stock in 100% DMSO to give seven successive 1/3 dilutions in DMSO. From each concentration, 2 further 1/10 dilutions were prepared in release buffer (137 mM NaCl, 2.70 mM KCI, 0.4 mM NaH2PO4, 5.6 mM (D)-glucose, 1.8 mM CaCl2, 1.3 mM MgSO4, 0.025% BSA). Finally, 5 µl from each diluted concentration were transferred into the assay plate (flat 96-well Nunc). The final compound concentrations tested ranged from 1x10^-5M to […] with a final proportion of DMSO in the assay of 0.1 %. Control wells were treated with 0.1 % DMSO.
Sensitized LAD2 cells were centrifuged (300 g, 3 min, R.T.) and washed 2 times with release buffer. Cells were resuspended in release buffer and adjusted to a density of 0.2x10^6/ml. 45 µl of the adjusted cells were transfered to the assay plate (∼10,000cells/well) containg 5 µl of the final compound concentrations. LAD2 cells were incubated with the compound for 30 min (37 °C, 5% CO2 90% of humidity) and then activated with 125 ng/ml of streptavidin (Pierce 21125) for 30 min (37 °C, 5% CO2, 90% of humidity). After the activation, cells were centrifuged at 1200 g, 10 min, 12 °C and supernatats were removed and transfered to another well for determination of released β-hexosaminidase. Empty wells were filled with 50 µl of release buffer for determination of intracellular β-hexosaminidase. Cells were lysed with 2 cycles of freeze-thaw.
Cells were incubated for 90 minutes, 37 °C with 1 mM β-hexosaminidase substrate (p-nitrophenyl N-acetyl-D-glucosamide, in citric buffer, pH 4.5). Reaction was stopped with 0.4 M glycine solution (pH 10.0) and the plate is read immediately at 405 nm.

[2] = Syk 1nM final, poly-GT 100 µg/ml, [γ-33P] ATP, 40 min at room temperature, read-out: Syk IC50
[3] = 0.5 h, IgE-sensitized LAD2 cells, 30 min with compound, activated with 125 ng/ml streptavidin, released β-hexosaminidase, read-out: LAD2IC50

Compound | IC50 [1, 2] | IC50 (LAD2 cells; [3]) | IC50 [1] | IC50 ([1]; read-out: Syk IC50, Syk 1nM final, poly-GT 100 µg/ml, [γ-33P] ATP, 40 min at room temperature) | IC50 (LAD2 cells; LAD2, 0.5 h, read-out: LAD2IC50(nM))
O=C(Nc1cc(Nc2cnccn2)nc(-c2ccnc(N3CCNCC3)c2)c1)c1ccc2c(c1)OCO2 [Example 77, N-[2'-Piperazin-1-yl-6-(pyrazin-2-ylamino)-2,4' -bipyridin-4-yl]-1,3-benzodioxole-5-Carboxamide] | 9 nM | 230 nM |  |  | 
O=C(Cc1cccnc1)Nc1cc(Nc2cnccn2)nc(-c2ccnc(N3CCNCC3)c2)c1 [Example 89, N-[2'-Piperazin-1-yl-6-(pyrazin-2-ylamino)-2,4'-bipyridin-4-yl]-2-pyridin-3-ylacetamide] |  | 350 nM | 4 nM |  | 
CC(=O)Nc1cc(Nc2cnccn2)nc(-c2ccnc(N3CCNCC3)c2)c1 [Example 101, N-[2'-Piperazin-1-yl-6-(pyrazin-2-ylamino)-2,4'-bipyridin-4-yl]acetamide] | 8 nM | 117 nM |  |  | 
O=C(Nc1cc(Nc2cnccn2)nc(-c2ccnc(N3CCNCC3)c2)c1)c1ccc(C(=O)O)nc1 [Example 96, 5-({[2'-Piperazin-1-yl-6-(pyrazin-2-ylamino)-2,4'-bipyridin-4-yl]amino}carbonyl) pyridine-2-Carboxylic acid] |  | 200 nM | 10 nM |  | 
COC(=O)c1cccc(C(=O)Nc2cc(Nc3cnccn3)nc(-c3ccnc(N4CCNCC4)c3)c2)c1 [Example 87, Methyl 3-({[2'-piperazin-1-yl-6-(pyrazin-2-ylamino)-2,4'-bipyridin-4-yl]amino}carbonyl)benzoate] | 6 nM | 330 nM |  |  | 
Nc1cc(Nc2cnccn2)nc(-c2ccnc(N3CCNCC3)c2)c1 [Example 127, 2'-Piperazin-1-yl-N^6-pyrazin-2-yl-2,4'-bipyridine-4,6-diamine] |  | 118 nM | 4 nM |  | 
O=C(O)C[C@H](Cc1ccccc1)NC(=O)c1cccc(C(=O)Nc2cc(Nc3cnccn3)nc(-c3ccnc(N4CCNCC4)c3)c2)c1 [Example 109, (3S)-4-Phenyl-3-{[3-({[2'-piperazin-1-yl-6-(pyrazin-2-ylamino)-2,4'-bipyridin-4-yl]amino}carbonyl)benzoyl]amino}butanoic acid] | 13 nM | 100 nM |  |  | 
NCCc1cccc(-c2cccc(Nc3cc(C(F)(F)F)ccn3)n2)c1 [Example 20, N-{6-[3-(2-Aminoethyl)phenyl]pyridin-2-yl}-4-(trifluoromethyl)pyridin-2-amine] | 8 nM | 186 nM |  |  | 
FC(F)(F)c1ccnc(Nc2cccc(-c3cccc(C4CCNCC4)c3)n2)c1 [Example 22, N-[6-(3-Piperidin-4-ylphenyl)pyridin-2-yl]-4-(trifluoromethyl)pyridin-2-amine] | 1.18 nM | 368 nM |  |  | 
Cc1ccnc(Nc2cccc(-c3ccnc(N4CCNCC4)c3)n2)c1 [Example 14, N-(4-Methylpyridin-2-yl)-2'-piperazin-1-yl-2,4'-bipyridin-6-amine] |  | 70 nM | 14 nM |  | 
FC(F)(F)c1ccnc(Nc2cccc(-c3cccc(N4CCNCC4)c3)n2)c1 [Example 23, N-[6-(3-Piperazin-1-ylphenyl)pyridin-2-yl]-4-(trifluoromethyl)pyridin-2-amine] |  | 331 nM | 0.56 nM |  | 
Cc1cc(C(=O)Nc2cc(Nc3cnccn3)nc(-c3ccnc(N4CCNCC4)c3)c2)n(C)n1 [Example 83, 1,3-Dimethyl-N-[2'-piperazin-1-yl-6-(pyrazin-2-ylamino)-2,4'-bipyridin-4-yl]-1H-pyrazole-5-Carboxamide] |  | 170 nM | 7 nM |  | 
O=C(CCc1ccccc1)Nc1cc(Nc2cnccn2)nc(-c2ccnc(N3CCNCC3)c2)c1 [Example 82, 3-Phenyl-N-[2'-piperazin-1-yl-6-(pyrazin-2-ylamino)-2,4'-bipyridin-4-yl]propanamide] | 8 nM | 280 nM |  |  | 
OC1CCN(c2cc(Nc3cnccn3)nc(-c3ccnc(N4CCNCC4)c3)c2)CC1 [Example 130, 1-(2'-(Piperazin-1-yl)-6-(pyrazin-2-ylamino)-2,4'-bipyridin-4-yl)piperidin-4-ol] | 8.2 nM | 400 nM |  |  | 
O=C(C[C@H](Cc1ccccc1)C(=O)O)Nc1cc(Nc2cnccn2)nc(-c2ccnc(N3CCNCC3)c2)c1 [Example 98, (2S)-2-Benzyl-4-oxo-4-{[2'-piperazin-1-yl-6-(pyrazin-2-ylamino)-2,4'-bipyridin-4-yl]amino}butanoic acid] | 16 nM | 82 nM |  |  | 
FC(F)(F)c1ccnc(Nc2cccc(-c3ccnc(N4CCNCC4)c3)n2)c1 [Example 26, 2'-Piperazin-1-y)-N-[4-(trifluoromethy))pyridin-2-y)]-2,4'-bipyridin-6-amine] |  | 206 nM | 1.8 nM |  | 
O=C(Nc1cc(Nc2cnccn2)nc(-c2ccnc(N3CCNCC3)c2)c1)c1cccc(C(F)(F)F)c1 [Example 76, N-[2'-Piperazin-1-yl-6-(pyrazin-2-ylamino)-2,4'-bipyridin-4-yl]-3-(trifluoromethyl) benzamide] | 7 nM | 310 nM |  |  | 
Nc1cc(Nc2cnccn2)nc(-c2cncc(N3CCNCC3)c2)c1 [Example 138] |  |  |  | 2.5 nM | 150 nM
COc1ccc(C(=O)Nc2cc(Nc3cnccn3)nc(-c3ccnc(N4CCNCC4)c3)c2)cc1 [Example 81, 4-Methoxy-N-[2'-piperazin-1-yl-6-(pyrazin-2-ylamino)-2,4'-bipyridin-4-yl]benzamide] | 12 nM | 430 nM |  |  | 
C1=C(c2cccc(-c3cccc(Nc4cnccn4)n3)c2)CCNC1 [Example 29, N-{6-[3-(1,2,3,6-Tetrahydropyridin-4-y))pheny)]pyridin-2-y)}pyrazin-2-amine] | 20 nM | 183 nM |  |  | 
CNc1cc(Nc2cnccn2)nc(-c2ccnc(N3CCNCC3)c2)c1 [Example 128, N^4-Methyl-2'-(piperazin-1-yl)-N^6-(pyrazin-2-yl)-2,4'-bipyridine-4,6-diamine] |  | 190 nM | 4.1 nM |  | 
Cc1ccnc(Nc2cc3ccccc3c(-c3ccnc(N4CCNCC4)c3)n2)c1 [Example 52, N-(4-Methylpyridin-2-yl)-1-(2-piperazin-1-ylpyridin-4-yl)isoquinolin-3-amine] | 18 nM | 434 nM |  |  | 
O=C(Nc1cc(Nc2cnccn2)nc(-c2ccnc(N3CCNCC3)c2)c1)c1cncnc1 [Example 95, N-[2'-Piperazin-1-yl-6-(pyrazin-2-ylamino)-2,4'-bipyridin-4-yl]pyrimidine-5-Carboxamide] |  | 320 nM | 9 nM |  | 
